In PubChem BioAssay AID1259345 one finds IC50 data, which are given here for two compounds.

Active and inactive are the calls of the source.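 How the source made its calls: active means IC50 below a set limit; inactive means the rest.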

The experiment has as its target A2780 TERC promoter luciferase reporter, 16 h. In words: modulation of TERC promoter-driven luciferase – cell-based, luciferase reporter, human, SAR follow-up (AID 1259345). Background: Reporter assays use an easily measured gene product as a stand-in for the process of interest.

Turning to `Cc1nc2cc(-c3ccc(C#CCO)cc3)nn2c(C)c1CCC(=O)O`, the IC50 entry was “inactive”. Regarding `Cc1nc2cc(-c3cccc(Br)c3)nn2c(C)c1CCC(=O)O`, the IC50 result was “inactive”.
